Here are results for 3 compounds from patent US10604480B2, “(Thio, oxo, and seleno) semicarbazone derivatives and their use for treating cancer” (RUTGERS, THE STATE UNIVERSITY OF NEW JERSEY, priority 2015, dated 2020).

The structures appear in SMILES notation.

In one experiment the test system is HEK293 cells. Briefly: Intracellular [Zn2+]free imaging with FluoZin-3-AM, HEK293 cells. The note with it: for increase of intracellular [Zn2+]free (FZ3-AM fluorescence): HEK293 (non-cancer, p53-WT), complete media, confocal microscopy. It is filed as cell-based. As to the method: (§1) To minimize the potential for Zn^2+ contamination and contributions from poorly defined elements in complete media (e.g. FBS), cells were treated and imaged in Ca^2+ and Mg^2+-free Earle's Balanced Salt Solution supplemented with 10 mM HEPES pH 7.4 (EBSS/H (−)Ca/Mg). Excess ZnCl2 with the Zn^2+ ionophore pyrithione (PYR) was used as a positive control. Excess membrane-permeable Zn^2+ chelator N,N,N′,N′-tetrakis(2-pyridylmethyl)ethane-1,2-diamine (TPEN) was used as a negative control.
To normalize for differential dye loading, cells were then sequentially treated with excess PYR/ZnCl2, imaged, treated with TPEN, and imaged again. PYR/ZnCl2 and TPEN served to saturate and apoize the intracellular FZ3, respectively.
TOV112D or HEK293 cells (40,000 cells/well) were plated on either 8-well BD Falcon chambered culture slides (Corning Life Sciences) or 8-chambered #1.5 Nunc Lab-Tek II chambered coverglasses (Thermo Scientific) treated with poly-L-lysine. After 48 h, cells were washed 2×5 m in serum-free media and incubated with 1 μM FZ3-AM for 40 m at 37° C. Cells were then washed 2×5 m in either EBSS/H (−)Ca/Mg or phenol-red free DMEM+10% FBS containing the indicated treatments for 20 m before imaging. For nuclear colocalization, 1 μg/mL Hoechst 33342 was also included. Cells were imaged using a Zeiss LSM50 META NLO confocal microscope equipped with 37° C. environmental control chamber. FZ3 and Hoechst 33342 were excited at 488 nm (argon laser) and 790 nm (Chameleon Ti:sapphire laser), respectively. To determine the kinetics of fluorescence change, each background-subtracted image in the time-lapse series was integrated in ImageJ and normalized to the integrated fluorescence of the first frame after treatment. For quantification of intracellular [Zn^2+]free, each cell was analyzed in the treated, 50 μM PYR/ZnCl2 (1:1), and 100 μM TPEN images by taking the mean fluorescence of an ROI inside the cell subtracted by an ROI immediately outside the cell measured in ImageJ. The [Zn^2+]free for each cell was then calculated by Eqn 2:
[formula] […] To minimize the effects of outliers the lowest and highest 5% of cells in each series were rejected, and the remaining values averaged to give the value from that experiment. The number of cells analyzed in each trial ranged from 54-163. For nuclear colocalization, treated, PYR/ZnCl2, and TPEN treated images costained with Hoechst 33342 were aligned and each pixel subjected to Eqn. 2 in MATLAB (MathWorks).

A short description of experiment [1]: Liposome import assay (RZ-3 fluorescence). The note with it: for Zn2+ shuttling into liposomes: external [Zn2+]free 10 μM. As to the method: However, in complete media containing 10% fetal bovine serum (FBS), Zn^2+-binding proteins from the serum (e.g. albumin) necessarily compete for Zn^2+ with any putative MC, making the effective [Zn^2+]free much lower than [Zn^2+]total.
DOPC-liposomes were prepared by film rehydration and extrusion followed by gel filtration and diluted to an OD600=0.06 in buffer. The size distribution of the liposomes was determined by dynamic light scattering (DLS) using a Malvern Zetasizer Nano ZS. Fluorescence measurements were taken on a Horiba Fluoromax-4 spectrofluorimeter in a 5×5 mm quartz cuvette with λex/λem=550/572 nm for RZ-3 and 490/515 nm for calcein. Initial Zn^2+ import/export was quantified by fitting the first 10-30 s of data after each treatment to a line and converted to units of flux using the following Eqn 1:
[formula] where Ji is the initial flux, ΔF/Δt is the slope of the fit line, Fmax is RZ-3 fluorescence in the presence of saturating Zn^2+ and 1% TritonX-100, Fmin is RZ-3 fluorescence in the presence of excess EDTA and 1% TritonX-100, [RZ3] is the concentration of encapsulated RZ-3, and SA/Vol is the surface area to volume ratio calculated assuming hollow spheres of the mean diameter determined by DLS. Intracellular [Zn^2+]free Imaging

The subject of a further experiment is TOV112D cells. Briefly: Intracellular [Zn2+]free imaging with FluoZin-3-AM, TOV112D cells. To be noted: ZMC1 alone without ZnCl2, EBSS/H (−)Ca/Mg. It is filed as cell-based. The protocol:
as §1
To normalize for differential dye loading, cells were then sequentially treated with excess PYR/ZnCl2, imaged, treated with TPEN, and imaged again. […]
TOV112D or HEK293 cells (40,000 cells/well) were plated on either 8-well BD Falcon chambered culture slides (Corning Life Sciences) or 8-chambered #1.5 Nunc Lab-Tek II chambered coverglasses (Thermo Scientific) treated with poly-L-lysine. […] To determine the kinetics of fluorescence change, each background-subtracted image in the time-lapse series was integrated in ImageJ and normalized to the integrated fluorescence of the first frame after treatment. For quantification of intracellular [Zn^2+]free, each cell was analyzed in the treated, 50 μM PYR/ZnCl2 (1:1), and 100 μM TPEN images by taking the mean fluorescence of an ROI inside the cell subtracted by an ROI immediately outside the cell measured in ImageJ. […]

Experiment [2] is described as follows: Liposomal leakage assay (calcein) and liposome size distribution. As to the method:
To ensure that the fluorescence results were due to Zn^2+ transport and not to non-specific disruption of liposomal membranes, a liposomal leakage assay was performed using the self-quenching fluorophore calcein. When calcein is encapsulated at concentrations above 4 mM its fluorescence is decreased via self-quenching. Leakage is detected by a fluorescence increase as the dye dilutes and its fluorescence dequenches. […] Disruption of liposomes can also be detected by alteration of their size distribution.
DOPC-liposomes were prepared by film rehydration and extrusion followed by gel filtration and diluted to an OD600=0.06 in buffer. The size distribution of the liposomes was determined by dynamic light scattering (DLS) using a Malvern Zetasizer Nano ZS. Fluorescence measurements were taken on a Horiba Fluoromax-4 spectrofluorimeter in a 5×5 mm quartz cuvette with λex/λem=550/572 nm for RZ-3 and 490/515 nm for calcein. Initial Zn^2+ import/export was quantified by fitting the first 10-30 s of data after each treatment to a line and converted to units of flux using the following Eqn 1: […]

Turning to `C/C(=N\NC(=O)N1CCC1)c1ccccn1` [Example A6], in the experiment on HEK293 cells, the “increase of intracellular [Zn2+]free (FZ3-AM fluorescence)” value (from here on “increase of intracellular [Zn2+]free”) is reported as “did not”. In addition, the “Zn2+ shuttling into liposomes” value in experiment [1] is recorded as “shuttled Zn^2+ into the liposomes”.
For `O=C(O)CN(CC(=O)O)CC(=O)O` [NTA], in the experiment with HEK293 cells, the “increase of intracellular [Zn2+]free” value is recorded as “did not”. In experiment [1], the “ability to cross liposomal or cellular membranes” value is “cannot cross either liposomal or cellular membranes” and the “Zn2+ shuttling into liposomes” value was “did not”.
Regarding `C/C(=N\NC(=S)N1CCC1)c1ccccn1` [ZMC1], the “increase of intracellular [Zn2+]free” value in the experiment on HEK293 cells is recorded as “increased”. Moreover, the “increase in intracellular [Zn2+]free, ZMC1 alone” value in the experiment with HEK293 cells (HEK293, ZMC1 alone without ZnCl2, EBSS/H (−)Ca/Mg) is listed as “neither cell type showed an increase”; with TOV112D cells, “neither cell type showed an increase”. The “ability to cross liposomal or cellular membranes” value in experiment [1] is “can cross biological membranes both as free drug and drug-Zn^2+ complex”. The “RZ-3 fluorescence after reversing [Zn2+]free gradient with excess external EDTA” value in experiment [1] (ZMC1 added after EDTA, export of Zn2+ from liposomes) was “time dependent decrease”. Moreover, the “calcein fluorescence increase (liposome leakage)” value in experiment [2] (highest concentrations of ZMC1 and ZnCl2) was “a significant fluorescence increase was not detected”. In experiment [2] (highest concentrations of ZnCl2 and ZMC1), the “size distribution of liposomes” value is on record as “identical to that of untreated liposomes”.
